In patent US20100143992A1, “Process for Fermentive Preparation of Alcohols and Recovery of Product” (E. I du Pont de Nemours and Company, priority 2008, published 2010):

What was measured:
[1] = Extraction of isobutanol from an aqueous solution by ionic liquid; type: physicochemical; conditions: 5 vol % ionic liquid; for g/L isobutanol left in solution / mM isobutanol (in solution after extraction): 3 mL aqueous solution, about 31 g/L isobutanol, overnight equilibration; for g/L isobutanol left in solution: control 32.3; for mM isobutanol (in solution after extraction): control 436; for % isobutanol Extracted: percentage of alcohol remaining in control
Procedure: (§2) The extraction of ethanol and isobutanol from an aqueous solution by selected ionic liquids was evaluated. […] Ethanol and isobutanol concentration in the solution was measured using HPLC as described above following thorough mixing and overnight equilibration of the contents of the vial.

[2] = Extraction of ethanol from an aqueous solution by ionic liquid; type: physicochemical; conditions: 5 vol % ionic liquid; for g/L ethanol left in solution / mM Ethanol (in solution after extraction): 3 mL aqueous solution, about 31 g/L ethanol, overnight equilibration; for g/L ethanol left in solution: control 30.2; for mM Ethanol (in solution after extraction): control 655; for % EthOH Extracted: percentage of alcohol remaining in control
Procedure: as §2

[3] = test system: Lactobacillus zeae (ATCC 15820); assay: Glucose Uptake Index (GUI) of culture grown with ionic liquid; type: cell-based; conditions: 5% (v/v) ionic liquid, 16 hours at 30° C., GUI of control without ionic liquid 61.9
Procedure: (§1) After 24 hours the test tube was removed and used immediately.

[4] = test system: Lactobacillus fermentum (ATCC 14931); assay: as above; type: cell-based; conditions: 5% (v/v) ionic liquid, 16 hours at 30° C., GUI of control without ionic liquid 55.9
Procedure: as §1

Molecule	g/L isobutanol left in solution [1] [g/L]	mM isobutanol (in solution after extraction) [1] [mM]	% isobutanol Extracted [1] [%]	g/L ethanol left in solution [2] [g/L]	mM Ethanol (in solution after extraction) [2] [mM]	% EthOH Extracted [2] [%]	GUI of Sample (Glucose Utilization Index in the presence of ionic liquid phase) [3]	GUI of Sample (Glucose Utilization Index in the presence of ionic liquid phase) [4]
COCC[N+](C)(C)CCN1C(=O)CCC1C.O=S(=O)([N-]S(=O)(=O)C(F)(F)F)C(F)(F)F (centres unmarked) [[[MeDMMEAP] [Tf2N], 1-(N,N,N-dimethyl(methylethoxy)aminoethyl)-5-methylpyrrolidone-2-one bis(trifluoromethane)sulfonamide]	28.8	389	12.1	29.6	643	1.88		
COCC[N+](C)(C)CCN1C(=O)CCC1C (centres unmarked) [[MeDMMEAP] [HFPS], 1-(N,N,N-dimethyl(methylethoxy)aminoethyl)-5-methylpyrrolidin-2-one hexafluoropropanesulfonate]	31.4	423	3.00	29.7	645	1.48	45.1	31.3
CCC[N+](C)(C)CCN1C(=O)CCC1C.O=S(=O)([N-]S(=O)(=O)C(F)(F)F)C(F)(F)F (centres unmarked) [[MeDMPAP] [Tf2N], 1-(N,N,N-dimethylpropylaminoethyl)-5-methylpyrrolidone-2-one bis(trifluoromethane)sulfonamide]	28.7	387	12.7					
1-Butyl-3-methylimidazolium levulinate [[BMIM] [Lev]]				27.5	596	8.95		
CC1CCC(=O)N1CC[N+](C)(C)CCO.O=S(=O)([N-]S(=O)(=O)C(F)(F)F)C(F)(F)F (centres unmarked) [[MeDHEAP] [Tf2N], 1-(N,N,N-dimethyl(hydroxyethyl)aminoethyl)-5-methylpyrrolidone-2-one bis(trifluoromethane)sulfonamide]	30.9	417	4.68					
CCOCC[N+](C)(C)CCN1C(=O)CCC1C (centres unmarked) [[MeDMEEAP] [Tf2N]] [1-(N,N,N-dimethyl(ethylethoxy)aminoethyl)-5-methyl-pyrrolidine-2-one bis(trifluoromethane)-sulfonamide]	29.5	398	9.48	29.4	637	2.66	49.5	37.6
CCOCC[N+](C)(C)CCN1C(=O)CCC1C (centres unmarked) [[MeDMEEAP] [HFPS]] [1-(N,N,N-dimethyl(ethylethoxy)aminoethyl)-5-methyl-pyrrolidine-2-one hexafluoropropanesulfonate]	31.3	422	3.38	30.2	656	0.00	46.9	34.5
1-Ethyl-3-methylimidazolium levulinate [[EMIM] [Lev]]							41.4	32.3
